According to ChEMBL document CHEMBL1138041, “Parallel artificial membrane permeability assay: a new membrane for the fast prediction of passive human skin permeability” (J Med Chem, 2006):

Tests used:
[1] = species on record: Homo sapiens
[2] = physchem
[3] = not given; remark: listed apart in the source
[4] = not given; remark: listed apart in the source
[5] = not given; remark: listed apart in the source

Row | Structure (SMILES) | log Kp ([1]; in vivo) [cm/s] | log Pe [cm/s] | pKa [2] | log Pe [3] [cm/s] | further results
1 | CCc1ccc(O)cc1 | -5.01 | -4.05 | 10.2 | – | –
2 | Nc1cc([N+](=O)[O-])ccc1O [2-AMINO-4-NITROPHENOL] | -6.62 | -4.84 | 6.7 | -3.96 | –
3 | Cc1cc(=O)n(-c2ccccc2)n1C [ANTIPYRINE] | -7.74 | -6.2 | – | -5.4 | –
4 | CCNc1nc(Cl)nc(NC(C)C)n1 [ATRAZINE] | -5.56 | -4.21 | < 2 | – | –
5 | O=C(OCc1ccccc1)c1cccnc1 [BENZYL NICOTINATE] | -5.35 | -4.26 | 3.94 | -4.35 | log Pe [4]: -4.18 cm/s
6 | Oc1ccc2ccccc2c1 [BETANAPHTHOL] | – | – | 9.4 | – | log Kp [1]: -5.11 cm/s; log Kp ([5]; not told): -4.08 cm/s; log Pe ([4]; not told): -4.35 cm/s; log Pe ([3]; not told): -4.41 cm/s; log Pe (not told): -4.19 cm/s
7 | Cn1c(=O)c2c(ncn2C)n(C)c1=O [CAFFEINE] | – | – | – | – | log Kp [1]: -7.56 cm/s
8 | O=C(O)Cc1ccccc1Nc1c(Cl)cccc1Cl [DICLOFENAC] | -5.3 | -4.33 | – | – | –
9 | CN[C@@H](C)[C@H](O)c1ccccc1 [EPHEDRINE] | -5.75 | -4.82 | – | – | –
10 | COc1ccc2c(c1)c(CC(=O)O)c(C)n2C(=O)c1ccc(Cl)cc1 [INDOMETHACIN] | – | -4.2 | – | – | log Kp [1]: -5.39 cm/s
11 | c1ccc2cnccc2c1 [ISOQUINOLINE] | -5.33 | -4.05 | 5.37 | – | –
12 | CC(C(=O)O)c1cccc(C(=O)c2ccccc2)c1 (stereo unspecified) [KETOPROFEN] | -4.7 | – | – | – | –
13 | COC(=O)c1cccnc1 [METHYL NICOTINATE] | -6.04 | -4.32 | 3.84 | – | –
14 | CN1CCC[C@H]1c1cccnc1 [NICOTINE] | – | – | 8.08 | – | log Kp [1]: -5.26 cm/s; log Kp ([5]; not told): -4.29 cm/s; log Pe ([4]; not told): -4.86 cm/s; log Pe ([3]; not told): -4.23 cm/s; log Pe (not told): -4.58 cm/s
15 | O=[N+]([O-])c1ccc(O)cc1 [P-NITROPHENOL] | -5.81 | -4.33 | 6.9 | -4.09 | log Kp [5]: -5.08 cm/s; log Pe [4]: -5.24 cm/s
16 | Oc1ccc(Cl)cc1 [PARACHLOROPHENOL] | -5 | -4.1 | 9.26 | – | –
17 | CCC1(c2ccccc2)C(=O)NC(=O)NC1=O [PHENOBARBITAL] | – | -5.15 | 7.49 | -4.16 | log Kp [1]: -6.9 cm/s
18 | Oc1ccccc1 [PHENOL] | – | – | – | – | log Kp [1]: -5.54 cm/s; log Kp ([5]; not told): -4.45 cm/s; log Pe ([4]; not told): -4.53 cm/s; log Pe ([3]; not told): -4 cm/s; log Pe (not told): -4.14 cm/s
19 | CN1C(C(=O)Nc2ccccn2)=C(O)c2ccccc2S1(=O)=O [PIROXICAM] | -6.02 | -4.35 | – | – | –
20 | CC(=O)[C@H]1CC[C@H]2[C@@H]3CCC4=CC(=O)CC[C@]4(C)[C@H]3CC[C@]12C [PROGESTERONE] | -5.08 | – | – | – | log Pe ([4]; not told): -4.31 cm/s; log Pe ([3]; not told): -4.63 cm/s; log Pe (not told): -4.56 cm/s
21 | Oc1cccc(O)c1 [RESORCINOL] | – | -5.62 | 9.21 | -4.66 | –
22 | O=C(O)c1ccccc1O [SALICYLIC ACID] | – | – | – | – | log Kp ([5]; not told): -4.7 cm/s; log Pe ([4]; not told): -4.74 cm/s; log Pe ([3]; not told): -3.98 cm/s; log Pe (not told): -4.16 cm/s
23 | Cc1ccc(C(C)C)c(O)c1 [THYMOL] | -4.83 | -4.34 | 10.6 | -4.23 | log Kp [5]: -3.68 cm/s; log Pe [4]: -4.11 cm/s
